Measurements from US20250276999A1, “PEPTIDES FOR PROMOTING HAIR FOLLICLE NEOGENESIS, AND PREVENTION/MITIGATION OF UNTOWARD EFFECTS OF RADIATION TREATMENT” (Trustees of Tufts College, priority 2022, published 2025).
Read-outs that look alike come from different tables or passages of the source.

Tests used:
[1] = system: X-ray irradiated and wounded mice; assay: Combined injury murine model (thoracic X-ray irradiation plus wound); format: in vivo, C57BL/6 mice
From the text: The C57BL/6 strain of mice has been utilized extensively for the study of radiation-induced skin injuries. We determined that 16 Gy is the minimal dosage for the induction of radiation burns in C57BL/6 mice that are not repaired within 45 days. Sham irradiated mice without wounds were used as controls for radiation dermatitis, and treated identically as irradiated mice. Wounded mice, without radiation, were used as controls for combined injury.
Animals were irradiated in the RS2000 small animal irradiator. The RS2000 provides a cone-shaped radiation field with irradiation at 12.39-40.50 cm from the X-ray source. For dose measurements, irradiation was performed with the following settings: 160 kVp, 25 mA, 90 s irradiation time and 0.3 mm Cu beam filtration. The approximate HVL provided by the manufacturer was 0.62 mm Cu. The University of Wisconsin Medical Radiation Research Center (UW MRRC) provided eight acrylic mouse phantoms with three (1×1×1 mm) Harshaw thermoluminenscence dosimeter (TLD)-100 microcubes (ThermoElectron Corp., Oakwood Village, OH) embedded in each phantom. The cylindrical phantom had dimensions of 27 mm in diameter (D)×65 mm in length (L) and was stabilized by a cylindrical insert 15 mm (D)×27 mm (L) with a 3 mm thick stand. A custom lead shield was placed on the floor of the irradiator, with the mouse thoracic region ˜43.75 cm from the X-ray source. Dose measurements were conducted twice to account for set-up error and reproducibility. TLDs were processed at UW MRRC using a national standard with an expanded uncertainty (k=2) of 5%. The dose rate was reported for each aperture position 1-4 as an absorbed dose rate to water (ADRW, Gy/min) and the two repeated measurements were averaged.
Mice (12-14 weeks of age) were anesthetized using inhaled anesthesia (isoflurane), and the fur was clipped on the dorsal side of the thoracic region. Two days after fur clipping, mice to be used for combined injury were given acetaminophen (150 mg/kg in 0.5 ml sterile saline) by gavage. Animals were then anesthetized with injected anesthesia (150 mg/kg ketamine/18 mg/kg xylazine) and placed in Lucite jigs for exposure to 16.5 Gy thoracic irradiation in the RS2000 X-ray irradiator as previously described. For combined injury, immediately following thoracic irradiation and while still under anesthesia, the area of the skin was scrubbed with betadine or chlorhexidine, followed by cleaning with an alcohol pad. A 9/16 inch diameter punch biopsy tool was used to create a 1 cm wound in the central dorsal thoracic region, roughly in the center of the field of radiation exposure. The panniculus carnosus muscle and overlying skin will be removed. The wound will be left open to air. The size of the wound approximates 15% of the total body skin surface.
TSN6 peptide (5 μg/day in 50 μl sterile saline) or hepatocyte growth factor (HGF; 3.3 μg/day in 50 μl sterile saline) or vehicle (sterile saline, 50 μl) were injected subcutaneously on days 2, 7 and 10 post-irradiation. Injections were made caudal, adjacent to the irradiated or irradiated/wounded area.
Animals were monitored daily for 85 days post-irradiation for both radiation dermatitis and combined injury models. Radiation dermatitis was separately scored for hair loss, erythema, scale, and ulceration. Scoring for erythema, scale and ulceration were previously described: 0=none; 1=minimal; 2=mild; 3=moderate; 4=marked. Because all animals underwent fur clipping prior to irradiation and wounding, scoring for hair loss was determined as failure to regrow hair in the irradiated areas: 0=none; 1=minimal; 2=mild; 3=moderate; 4=marked. Animals were photographed for the measurement of wounds and for dermatitis scoring. […] Weight was measured as an indication of overall health.

X-ray irradiated mice = assay: Radiation dermatitis murine model (thoracic X-ray irradiation); format: in vivo, C57BL/6 mice
Experimental: Animals were irradiated in the RS2000 small animal irradiator. The RS2000 provides a cone-shaped radiation field with irradiation at 12.39-40.50 cm from the X-ray source. For dose measurements, irradiation was performed with the following settings: 160 kVp, 25 mA, 90 s irradiation time and 0.3 mm Cu beam filtration. The approximate HVL provided by the manufacturer was 0.62 mm Cu. […] A custom lead shield was placed on the floor of the irradiator, with the mouse thoracic region ˜43.75 cm from the X-ray source. Dose measurements were conducted twice to account for set-up error and reproducibility. […] The dose rate was reported for each aperture position 1-4 as an absorbed dose rate to water (ADRW, Gy/min) and the two repeated measurements were averaged.
Mice (12-14 weeks of age) were anesthetized using inhaled anesthesia (isoflurane), and the fur was clipped on the dorsal side of the thoracic region. […] Animals were then anesthetized with injected anesthesia (150 mg/kg ketamine/18 mg/kg xylazine) and placed in Lucite jigs for exposure to 16.5 Gy thoracic irradiation in the RS2000 X-ray irradiator as previously described [19].
Animals were monitored daily for 85 days post-irradiation for both radiation dermatitis and combined injury models. Radiation dermatitis was separately scored for hair loss, erythema, scale, and ulceration. Scoring for erythema, scale and ulceration were previously described: 0=none; 1=minimal; 2=mild; 3=moderate; 4=marked [19]. Because all animals underwent fur clipping prior to irradiation and wounding, scoring for hair loss was determined as failure to regrow hair in the irradiated areas: 0=none; 1=minimal; 2=mild; 3=moderate; 4=marked. Animals were photographed for the measurement of wounds and for dermatitis scoring. […] Weight was measured as an indication of overall health.

dermal papilla cells = assay: Alkaline phosphatase activity (marker of trichogenicity) in cultured cells; format: cell-based; conditions: TSN18, treated for four days, in vitro
Experimental: Dermal papilla cells regulate hair follicle development and growth, unfortunately, maintaining dermal papilla cells inductive capacity is difficult in culture, as evident by their gradual loss of alkaline phosphatase activity in culture^3. To test if TSN peptides can increase alkaline phosphatase activity keratinocytes and dermal papilla cells were plated at 4000 and 2000 cells/well respectively in a 96 well plate with six replicates and cultured overnight. The media was changed and appropriate treatment-vehicle, scrambled peptide or active peptide—was added to the well. The media were changed with fresh media containing peptides 2 days after initial treatment, and the total culture period was 4 days, following which alkaline phosphatase activity was measured (FIG. 1). […]
Alkaline Phosphatase activity: Keratinocytes and dermal papilla cells were plated at 4000 and 2000 cells/well respectively in a 96 well plate with six replicates and cultured overnight. […] Alkaline phosphatase activity was measured according to manufacturer's instructions using Alkaline Phosphatase Yellow (pNPP) Liquid Substrate System for ELISA (Sigma Aldrich).
Materials and Methods: Cultured dermal papilla (DP) cells, specialized skin fibroblasts isolated from the base of hair follicles, were treated with TSN18 for four days. […] Graft sizes were measured by tracing the grafts and area determined using ImageJ (NIH) software.

grafted DECs = assay: Graft survival and size of TSN18-treated DECs grafted on nude mice; format: in vivo, Cr: NIH(S)-nu/nu mice
Experimental: Materials and Methods: Cultured dermal papilla (DP) cells, specialized skin fibroblasts isolated from the base of hair follicles, were treated with TSN18 for four days. Cell viability was measured using the CellTiter 96 Non-radioactive cell proliferation assay (MTT) kit. Alkaline phosphatase activity, a marker of trichogenicity was measured with the alkaline phosphatase yellow (pNPP) liquid substrate system for ELISA. A pilot study was performed to see whether incorporation of TSN18 active peptide in DECs improves graft survival or size. For the construction of DECs, human DP cells suspended in 1 mg/mL rat tail type I collagen were plated on inserts placed in six-well plates and incubated in media containing TSN18 active or scrambled peptide for 3 days. Subsequently, human neonatal foreskin keratinocytes were layered on top and the media changed to Epi medium containing TSN18 active or scrambled peptide for 2 days. […] The bandages were changed at two weeks and removed after four weeks and the grafts were monitored through 10 weeks. […] At the end of the experiment, the histological appearance of grafts was evaluated for the presence of a human stratified squamous epithelium and the presence or absence of human cells was assessed by staining for human leukocyte antigen. Graft sizes were measured by tracing the grafts and area determined using ImageJ (NIH) software.

[2] = system: wound re-epithelization and closure; conditions: in BALB/c mice, previous studies; cited from earlier work
[3] = system: wound re-epithelization and closure; conditions: in vitro, previous studies; cited from earlier work
[4] = system: dermal papilla (DP) cells; assay: Cell viability assay (MTT); format: cell-based; conditions: treated for four days, in vitro
Experimental: Cell viability assay: Keratinocytes and dermal papilla cells were plated at 4000 and 2000 cells/well respectively in a 96 well plate with six replicates and cultured overnight. The media was changed and appropriate treatment-vehicle, scrambled peptide or active peptide—was added to the well. The media were changed with fresh media containing peptides 2 days after initial treatment, and the total culture period was 4 days. The cell viability was then measured using CellTiter […] Non-Radioactive Cell Proliferation Assay (MTT) (Promega Corporation). Briefly, 15 μL of dye solution was added to each well and incubated for 4 h at 37° C. and 5% CO2. Next 100 μL of stop solution was added to the mixture, incubated for an hour and absorbance was recorded at 570 nm using a plate reader.
Materials and Methods: Cultured dermal papilla (DP) cells, specialized skin fibroblasts isolated from the base of hair follicles, were treated with TSN18 for four days. Cell viability was measured using the CellTiter 96 Non-radioactive cell proliferation assay (MTT) kit. Alkaline phosphatase activity, a marker of trichogenicity was measured with the alkaline phosphatase yellow (pNPP) liquid substrate system for ELISA. […] The bandages were changed at two weeks and removed after four weeks and the grafts were monitored through 10 weeks. […]

mice with CI = assay: Combined injury (CI) pilot study with active or scrambled peptide; format: in vivo, C57BL/6 mouse; conditions: s.c. near wound on days 2, 7, 10 post-irradiation; 5 mice per group (FIG. 15)
From the text: Mice were exposed to thoracic X-ray irradiation without excision wounding to induce CRI, and with an experimental excision wound within the irradiated region to induce CI. Animals were scored by researchers blinded to the treatment groups. Photographic documentation was made for each experiment. We evaluated the rate of wound healing from days 1-30 post-irradiation, and the severity of dermatitis was scored using four variable measures (erythema, scale, hair loss, and ulceration) in the mice from 14 days post-irradiation (dpi) until necropsy. Specific cellular and protein expression changes were determined using western blotting and immunohistochemistry (IHC). To evaluate the efficacy of bioactive peptides, mice with CI were treated with active peptides or scrambled peptides (negative control) by subcutaneous injection near the wound site on days 2, 7, and 10 post-irradiation. Additionally, vehicle control CI animals received saline (vehicle for the peptides) injections in the same volumes on the same days.

[5] = 16.5 Gy plus wound, s.c. days 2, 7, 10, TSN6 5 μg/day, HGF 3.3 μg/day
[6] = 16.5 Gy, s.c. days 2, 7, 10 post-irradiation, TSN6 5 μg/day, HGF 3.3 μg/day, vs vehicle

Substance | ulceration score ([1]; 16.5 Gy plus wound, HGF 3.3 μg/day s.c. days 2, 7, 10) | characteristics of radiation dermatitis (hair loss, scale, erythema, ulceration) including combined score [1, 5] | rate of wound closure / wound repair [1, 5] | adipose layer in histological sections ([1]; combined injury, 83 days post-irradiation) | ulceration score (X-ray irradiated mice; 16.5 Gy, s.c. days 2, 7, 10 post-irradiation, HGF 3.3 μg/day, vs vehicle) | erythema score (X-ray irradiated mice; [6]) | hair loss score (X-ray irradiated mice; [6]) | radiation dermatitis (overall measures) (X-ray irradiated mice; [6]) | scale score (X-ray irradiated mice; [6]) | adipose layer in H&E histological sections (X-ray irradiated mice; skin 83 days post-irradiation, radiation alone) | alkaline phosphatase activity of DP cells (dermal papilla cells) | average graft size (grafted DECs; at 10 weeks, peptide 10 μM, ImageJ) | mice that retained the graft until 10 weeks (grafted DECs; peptide 10 μM in DECs, n=5 per group) | wound re-epithelization and closure [2] | wound re-epithelization and closure [3] | cell viability of DP cells [4] | decrease of severity of aggregate radiation dermatitis scores (mice with CI)
HGF: Hepatocyte growth factor, a pluripotent factor; a known adult tissue repair factor | somewhat exacerbate ulceration | did not improve any measure | did not accelerate wound repair | some improvement in the adipose layer in some animals | not markedly different | not markedly different | not markedly different | did not improve any measures | not markedly different | some improve preservation of the adipose layer |  |  |  |  |  |  | 
QPQPLPSPGVGGKN [TSN18, 14 aa combination of non-helical Collagen (VI) Alpha-3 chain regions] |  |  |  |  |  |  |  |  |  |  | did not affect | 16.4±5.4 mm2 | four out of five | promoted wound re-epithelization and closure | promoted wound re-epithelization and closure | did not affect | ~50%
